One test deals with T1, ALDH2 (Homo sapiens, UniProt P05091).
T1 sequence (P05091 18-517): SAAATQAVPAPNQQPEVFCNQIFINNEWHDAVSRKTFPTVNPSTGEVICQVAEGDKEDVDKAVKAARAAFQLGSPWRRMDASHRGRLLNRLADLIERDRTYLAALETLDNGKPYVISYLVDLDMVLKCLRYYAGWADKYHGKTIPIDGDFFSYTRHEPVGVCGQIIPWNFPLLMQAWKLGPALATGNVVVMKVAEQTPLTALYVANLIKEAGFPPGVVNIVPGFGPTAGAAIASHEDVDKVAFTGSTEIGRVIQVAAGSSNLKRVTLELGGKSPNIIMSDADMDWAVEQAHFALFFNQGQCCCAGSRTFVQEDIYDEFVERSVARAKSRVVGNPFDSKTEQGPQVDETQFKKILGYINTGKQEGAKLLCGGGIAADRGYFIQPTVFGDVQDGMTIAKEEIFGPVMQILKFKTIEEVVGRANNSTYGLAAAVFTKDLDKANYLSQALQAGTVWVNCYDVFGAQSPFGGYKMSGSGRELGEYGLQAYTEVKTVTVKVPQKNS
Kind of test: propionaldehyde dehydrogenase assay. Particulars: read-out: ALDH2. The test is classed as biochemical.

The target in the next test is T2, ALDH1B1 (Homo sapiens, UniProt P30837).
T2 sequence (P30837 18-517): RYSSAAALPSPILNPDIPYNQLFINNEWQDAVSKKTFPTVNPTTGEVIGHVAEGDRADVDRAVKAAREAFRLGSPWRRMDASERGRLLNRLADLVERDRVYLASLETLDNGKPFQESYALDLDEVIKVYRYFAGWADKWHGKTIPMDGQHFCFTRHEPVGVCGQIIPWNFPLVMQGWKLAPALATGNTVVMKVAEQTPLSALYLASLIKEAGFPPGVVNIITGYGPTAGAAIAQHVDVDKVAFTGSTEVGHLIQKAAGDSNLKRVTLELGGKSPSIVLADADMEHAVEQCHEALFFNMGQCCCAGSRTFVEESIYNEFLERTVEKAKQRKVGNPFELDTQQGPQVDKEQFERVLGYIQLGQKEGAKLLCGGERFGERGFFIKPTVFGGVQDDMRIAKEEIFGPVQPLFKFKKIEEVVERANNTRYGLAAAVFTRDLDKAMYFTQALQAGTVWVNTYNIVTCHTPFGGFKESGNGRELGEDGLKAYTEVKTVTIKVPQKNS
Kind of test: propionaldehyde dehydrogenase assay. Particulars: read-out: % inhibition at 10 μM. Format: biochemical.

A further test deals with T3, ALDH1A3 (Homo sapiens, UniProt P47895).
T3 sequence (P47895 2-512): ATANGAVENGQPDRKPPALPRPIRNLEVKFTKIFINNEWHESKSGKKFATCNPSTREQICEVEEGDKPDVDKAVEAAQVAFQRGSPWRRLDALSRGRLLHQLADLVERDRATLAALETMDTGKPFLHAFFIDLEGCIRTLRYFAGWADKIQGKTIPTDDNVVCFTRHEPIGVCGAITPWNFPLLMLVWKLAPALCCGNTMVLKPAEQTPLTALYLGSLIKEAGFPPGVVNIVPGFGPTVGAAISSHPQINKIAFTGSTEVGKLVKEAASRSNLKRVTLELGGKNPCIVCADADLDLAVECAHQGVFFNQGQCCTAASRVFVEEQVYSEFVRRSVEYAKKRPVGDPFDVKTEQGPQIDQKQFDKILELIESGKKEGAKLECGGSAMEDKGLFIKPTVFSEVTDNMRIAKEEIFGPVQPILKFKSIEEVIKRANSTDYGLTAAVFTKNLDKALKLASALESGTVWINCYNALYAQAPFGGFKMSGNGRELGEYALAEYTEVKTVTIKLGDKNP
Kind of test: propionaldehyde dehydrogenase assay. Format: biochemical. The settings on record: read-out: % inhibition at 10 μM.

For a further test, the target named is T4, ALDH1A2 (Homo sapiens, UniProt O94788).
T4 sequence (O94788 1-518): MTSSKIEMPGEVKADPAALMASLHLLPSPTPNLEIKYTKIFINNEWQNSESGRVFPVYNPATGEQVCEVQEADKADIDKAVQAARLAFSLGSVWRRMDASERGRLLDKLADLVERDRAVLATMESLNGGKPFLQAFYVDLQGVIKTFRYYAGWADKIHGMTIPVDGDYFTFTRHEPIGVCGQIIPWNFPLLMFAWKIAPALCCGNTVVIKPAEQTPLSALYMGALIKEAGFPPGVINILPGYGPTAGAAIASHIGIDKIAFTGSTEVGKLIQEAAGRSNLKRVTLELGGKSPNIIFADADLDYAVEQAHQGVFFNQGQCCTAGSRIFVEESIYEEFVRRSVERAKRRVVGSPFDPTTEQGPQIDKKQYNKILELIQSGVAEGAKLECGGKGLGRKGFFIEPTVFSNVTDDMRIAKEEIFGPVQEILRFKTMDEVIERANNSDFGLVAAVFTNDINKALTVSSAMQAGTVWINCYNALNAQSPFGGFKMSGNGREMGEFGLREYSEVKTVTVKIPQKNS
Kind of test: propionaldehyde dehydrogenase assay. The test is classed as biochemical. The settings on record: read-out: % inhibition at 10 μM.

Test [1] deals with T5, ALDH1A1 (Homo sapiens, UniProt P00352, N121S).
T5 sequence (P00352 2-501 N121S): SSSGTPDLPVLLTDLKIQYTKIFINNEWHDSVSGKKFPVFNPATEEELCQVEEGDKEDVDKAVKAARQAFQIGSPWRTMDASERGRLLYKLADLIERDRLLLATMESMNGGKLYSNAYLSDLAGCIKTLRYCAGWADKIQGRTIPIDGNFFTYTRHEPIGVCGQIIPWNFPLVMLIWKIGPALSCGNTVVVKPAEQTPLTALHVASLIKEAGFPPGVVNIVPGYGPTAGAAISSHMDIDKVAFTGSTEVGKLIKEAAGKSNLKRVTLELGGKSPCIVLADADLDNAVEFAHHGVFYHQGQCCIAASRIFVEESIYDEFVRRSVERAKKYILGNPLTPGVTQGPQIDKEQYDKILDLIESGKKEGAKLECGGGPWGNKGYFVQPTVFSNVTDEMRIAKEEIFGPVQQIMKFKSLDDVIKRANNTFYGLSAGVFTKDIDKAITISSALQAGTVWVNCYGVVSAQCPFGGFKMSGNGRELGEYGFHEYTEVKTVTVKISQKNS
Kind of test: propionaldehyde dehydrogenase assay. The test is classed as biochemical. Particulars: read-out: ALDH1A1 ^*.

Test [2] addresses T5, ALDH1A1. Kind of test: biochemical. Particulars: read-out: % of control remaining.
The target of the next test is T6, ALDH3A1 (Homo sapiens, UniProt P30838).
T6 sequence (P30838 1-453): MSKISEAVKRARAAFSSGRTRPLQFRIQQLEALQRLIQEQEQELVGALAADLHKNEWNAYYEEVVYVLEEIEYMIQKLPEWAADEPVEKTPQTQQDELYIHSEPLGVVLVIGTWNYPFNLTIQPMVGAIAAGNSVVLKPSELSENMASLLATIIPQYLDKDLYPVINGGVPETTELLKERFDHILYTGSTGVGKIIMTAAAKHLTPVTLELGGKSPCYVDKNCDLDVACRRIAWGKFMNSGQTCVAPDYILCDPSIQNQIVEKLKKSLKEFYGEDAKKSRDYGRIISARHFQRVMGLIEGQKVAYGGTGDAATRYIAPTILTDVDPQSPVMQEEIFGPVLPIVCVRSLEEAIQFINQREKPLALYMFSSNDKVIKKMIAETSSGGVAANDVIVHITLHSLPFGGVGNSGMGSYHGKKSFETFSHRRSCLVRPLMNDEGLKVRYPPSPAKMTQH
Kind of test: biochemical. Particulars: read-out: % of control remaining.

As to `CCCc1c(C)c2cc3c(C)c(C)oc3cc2oc1=O` [2P3, 2,3,5-trimethyl-6-propyl-7H-furo[3,2-g]chromen-7-one], the activity at 10 µM was determined as 1.5% on ALDH2 and 40.8% on ALDH1A1 [1]. In addition, the inhibition at 10 µM at ALDH1B1, at ALDH1A3 and on ALDH1A2 was over 60% in each case.
In the case of `COC(=O)C(C)Oc1ccc2c(C)cc(=O)oc2c1` (centres unmarked) [2BS4, methyl-2-[(4-methyl-2-oxo-2H-chromen-7-yl)oxy]propanoate], at ALDH2, the activity at 10 µM came out at 10.3%.
Regarding `Cc1oc2cc3oc(=O)c(C)c(C)c3cc2c1C` [2P4, 2,3,5,6-tetramethylfuro[3,2-g]chromen-7-one], the remaining activity at 10 µM at ALDH1A1 [2] came to 89.3%; at ALDH3A1, 87.8%.
Take `CCCc1c(C)c2cc3c(C)coc3cc2oc1=O` [2CB5, 3,5-dimethyl-6-propylfuro[3,2-g]chromen-7-one]: the activity at 10 µM at ALDH2 turned out to be 7.6%; at ALDH1A1 [1] it was 58.6%. The remaining activity at 10 µM on ALDH3A1 was determined as 87.6%.

For orientation: inhibition means the drop in the measured response relative to a control, in per cent.
